This is an account of results in patent US9267129B2, “Compositions and methods for conferring herbicide resistance” (BEN-GURION UNIVERSITY OF THE NEGEV RESEARCH AND DEVELOPMENT …, priority 2011, dated 2016).

What all share (assay type): cell-based, Escherichia coli
Details in all cases: 50 μM SMM, 48 hrs, 37° C.

For assay [1], the system named is E. coli BUM1 carrying the mutant gene (pEp-mut). The assay can be described thus: Growth on M9 plates with SMM, bacteria carrying the mutant gene. On the procedure: (§1) This strain also requires proline and thiamin, regardless of AHAS expression. Transformation of BUM1 cells was achieved using a standard heat shock protocol. BUM1 cells were grown in LB or in M9 minimal medium (7 mg/ml Na2HPO4; 3 mg/ml KH2PO4; 0.5 mg/ml NaCl; 1 mg/ml NH4Cl; 0.12 mg/ml MgSO4; 0.35 mg/ml thiamin HCl; 2 mg/ml glucose) supplemented with 200 μg/ml proline. Where appropriate, the M9 medium was supplemented with the BCAAs valine, leucine, and isoleucine (150 μg/ml of each) or with 50 μM SMM. BUM1 transformants were propagated and kept on LB medium supplemented with 100 μg/ml Ampicillin. For functional expression assays, the cells were washed and plated on M9 agar plates and incubated for 48 hrs at 37° C. […]
(§2) The expression vector pEp-empty, an empty plasmid that retains the native ilvEp promoter and ATG start codon, was created by amplification of pAH29 plasmid with the pAH29-empty primer set, and included BamHI and SalI restriction sites for future fusion with the algal genes. Three forms of PiAHAS genes were used for this experiment: PiAHAS full open reading frame (ORF), truncated PiAHAS without the estimated chloroplast targeting peptide (from Serine91), and PimAHAS containing the point mutation (W605S). […] The plates were incubated for 48 hrs (FIG. 3) and bacterial growth was determined. […]

For assay [2], the system named is E. coli BUM1 transformed with the wild type PiAHAS genes. Nature of the assay: Growth on M9 plates with SMM, bacteria transformed with wild type PiAHAS genes. On the procedure:
as §1, §2

The subject of assay [3] is E. coli BUM1 transformed with pAH29 (bacterial AHASII). Nature of the assay: Growth on M9 plates with SMM, bacteria transformed with pAH29. As for the experimental part: as §1, §2

As for `COC(=O)c1ccccc1S(=O)(=O)NC(=O)Nc1nc(C)cc(C)n1` [SMM, sulfometuron methyl], the “bacterial growth in presence of SMM” value is “not affected” in assay [1], “totally inhibited” in assay [2] and “able to grow slowly” in assay [3].
